{"source": "patent US10738030B2", "about": "“Modulators of cystic fibrosis transmembrane conductance regulator” (Vertex Pharmaceuticals Incorporated, priority 2016, dated 2020)", "molecular_target": "T1, F508del (Homo sapiens, UniProt P13569, DEL508-508)", "T1 construct": "expressed in transfected cells", "T1 sequence (P13569 with tags, fused parts or gaps DEL508-508)": "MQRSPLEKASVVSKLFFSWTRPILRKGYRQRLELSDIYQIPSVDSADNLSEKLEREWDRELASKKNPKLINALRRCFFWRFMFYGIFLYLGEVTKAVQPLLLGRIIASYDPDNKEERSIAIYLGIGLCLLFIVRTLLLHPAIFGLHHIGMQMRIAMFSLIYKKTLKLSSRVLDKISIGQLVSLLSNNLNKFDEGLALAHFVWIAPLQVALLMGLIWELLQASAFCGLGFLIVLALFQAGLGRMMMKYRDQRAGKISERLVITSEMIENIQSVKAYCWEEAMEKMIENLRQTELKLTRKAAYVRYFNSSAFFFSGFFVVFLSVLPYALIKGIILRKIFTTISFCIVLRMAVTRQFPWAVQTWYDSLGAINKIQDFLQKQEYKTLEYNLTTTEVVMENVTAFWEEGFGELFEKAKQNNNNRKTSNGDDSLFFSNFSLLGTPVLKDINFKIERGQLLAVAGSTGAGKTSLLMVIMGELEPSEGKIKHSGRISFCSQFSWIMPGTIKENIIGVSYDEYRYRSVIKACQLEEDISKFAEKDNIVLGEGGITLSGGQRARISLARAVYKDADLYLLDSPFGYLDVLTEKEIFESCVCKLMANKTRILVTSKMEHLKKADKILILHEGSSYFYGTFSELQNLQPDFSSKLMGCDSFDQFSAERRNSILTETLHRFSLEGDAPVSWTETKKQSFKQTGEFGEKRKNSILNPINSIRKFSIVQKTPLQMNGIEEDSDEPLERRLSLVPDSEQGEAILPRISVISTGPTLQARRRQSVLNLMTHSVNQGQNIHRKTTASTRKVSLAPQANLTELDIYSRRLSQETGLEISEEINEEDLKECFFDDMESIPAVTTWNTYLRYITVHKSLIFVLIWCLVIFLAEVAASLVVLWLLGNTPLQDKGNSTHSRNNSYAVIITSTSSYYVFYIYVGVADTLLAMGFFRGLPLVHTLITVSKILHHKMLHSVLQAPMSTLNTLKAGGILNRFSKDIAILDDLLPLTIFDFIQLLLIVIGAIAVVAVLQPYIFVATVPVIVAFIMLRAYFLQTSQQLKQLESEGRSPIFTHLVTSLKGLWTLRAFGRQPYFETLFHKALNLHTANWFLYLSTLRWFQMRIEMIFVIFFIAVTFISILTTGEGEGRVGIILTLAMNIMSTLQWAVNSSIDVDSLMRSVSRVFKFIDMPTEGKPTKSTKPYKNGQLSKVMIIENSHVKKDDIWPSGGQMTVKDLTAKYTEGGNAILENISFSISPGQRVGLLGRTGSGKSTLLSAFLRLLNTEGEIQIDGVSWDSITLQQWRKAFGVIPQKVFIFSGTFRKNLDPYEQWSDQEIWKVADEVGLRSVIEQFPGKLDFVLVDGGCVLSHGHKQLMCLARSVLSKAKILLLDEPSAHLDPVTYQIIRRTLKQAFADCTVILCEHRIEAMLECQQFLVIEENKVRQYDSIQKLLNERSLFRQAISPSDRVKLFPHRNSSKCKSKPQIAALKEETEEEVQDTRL", "experiment": "Membrane potential optical assay (FRET voltage-sensor dyes), identification of correction compounds", "format": "cell-based", "conditions": "NIH3T3 cells stably expressing F508del, procedures described above; for Emax: maximum efficacy, read-out: Max Efficacy; for EC50: modulation of CFTR activity", "description": "(§1) NIH3T3 mouse fibroblasts stably expressing F508del are used for optical measurements of membrane potential. The cells are maintained at 37° C. in 5% CO2 and 90% humidity in Dulbecco's modified Eagle's medium supplemented with 2 mM glutamine, 10% fetal bovine serum, 1×NEAA, β-ME, 1× pen/strep, and 25 mM HEPES in 175 cm^2 culture flasks. For all optical assays, the cells were seeded at 12,000 cells/well in 384-well matrigel-coated plates and cultured for 18-24 hrs at 37° C. for the potentiator assay. For the correction assays, the cells are cultured at 37° C. with and without compounds for 18-24 hours.\nMembrane potential optical methods for assaying F508del modulation properties of compounds.\nThe optical membrane potential assay utilized voltage-sensitive FRET sensors described by Gonzalez and Tsien (See Gonzalez, J. E. and R. Y. Tsien (1995) “Voltage sensing by fluorescence resonance energy transfer in single cells” Biophys J 69(4): 1272-80, and Gonzalez, J. E. and R. Y. Tsien (1997) “Improved indicators of cell membrane potential that use fluorescence resonance energy transfer” Chem Biol 4(4): 269-77) in combination with instrumentation for measuring fluorescence changes such as the Voltage/Ion Probe Reader (VIPR) (See, Gonzalez, J. E., K. Oades, et al. (1999) “Cell-based assays and instrumentation for screening ion-channel targets” Drug Discov Today 4(9): 431-439).\nThese voltage sensitive assays are based on the change in fluorescence resonant energy transfer (FRET) between the membrane-soluble, voltage-sensitive dye, DiSBAC2(3), and a fluorescent phospholipid, CC2-DMPE, which is attached to the outer leaflet of the plasma membrane and acts as a FRET donor. Changes in membrane potential (Vm) cause the negatively charged DiSBAC2(3) to redistribute across the plasma membrane and the amount of energy transfer from CC2-DMPE changes accordingly. The changes in fluorescence emission were monitored using VIPR™ II, which is an integrated liquid handler and fluorescent detector designed to conduct cell-based screens in 96- or 384-well microtiter plates.\nTo identify small molecules that correct the trafficking defect associated with F508del; a single-addition HTS assay format was developed. The cells were incubated in serum-free medium for 16 hrs at 37° C. in the presence or absence (negative control) of test compound. As a positive control, cells plated in 384-well plates were incubated for 16 hrs at 27° C. to “temperature-correct” F508del. The cells were subsequently rinsed 3× with Krebs Ringers solution and loaded with the voltage-sensitive dyes. To activate F508del, 10 μM forskolin and the CFTR potentiator, genistein (20 μM), were added along with Cl^−-free medium to each well. The addition of Cl^−-free medium promoted Cl^− efflux in response to F508del activation and the resulting membrane depolarization was optically monitored using the FRET-based voltage-sensor dyes.\n• Bath Solution #1: (in mM) NaCl 160, KCl 4.5, CaCl2 2, MgCl2 1, HEPES 10, pH 7.4 with NaOH. • Chloride-free bath solution: Chloride salts in Bath Solution #1 (above) are substituted with gluconate salts. • CC2-DMPE: Prepared as a 10 mM stock solution in DMSO and stored at −20° C. • DiSBAC2(3): Prepared as a 10 mM stock in DMSO and stored at −20° C. Cell Culture\nas §1, with “seeded at 30,000/well in 384-well” for “seeded at 12,000 cells/well in 384-well”, “cultured for 2 hrs at” for “cultured for 18-24 hrs at”, “37° C. before culturing at 27° C. for 24 hrs for the” for “37° C. for the”, “cultured at 27° C. or 37° C.” for “cultured at 37° C.”, “compounds for 16-24 hours.” for “compounds for 18-24 hours.”"}
{"compound": "COCCOc1nc(-c2cc(F)cc(OCC(C)C)c2)ccc1C(=O)NS(=O)(=O)c1cccc(N)n1", "note": "[Compound 60, N-[(6-amino-2-pyridyl)sulfonyl]-6-(3-fluoro-5-isobutoxy-phenyl)-2-(2-methoxyethoxy)pyridine-3-carboxamide]", "values": [{"measurement": "Emax", "value": "30 to 80", "unit": "%"}, {"measurement": "EC50", "value": "< 3", "unit": "µM"}]}
{"compound": "CC(C)COc1cc(F)cc(-c2ccc(C(=O)NS(=O)(=O)c3cccc(N)n3)c(N(C)C)n2)c1", "note": "[Compound 19, N-[(6-amino-2-pyridyl)sulfonyl]-2-(dimethylamino)-6-(3-fluoro-5-isobutoxy-phenyl)pyridine-3-carboxamide]", "values": [{"measurement": "Emax", "value": "> 80", "unit": "%"}, {"measurement": "EC50", "value": "< 3", "unit": "µM"}]}
{"compound": "CCCOc1nc(-c2cc(F)cc(OCC(C)C)c2)ccc1C(=O)NS(=O)(=O)c1cccc(N)n1", "note": "[Compound 27, N-[(6-amino-2-pyridyl)sulfonyl]-6-(3-fluoro-5-isobutoxy-phenyl)-2-propoxy-pyridine-3-carboxamide]", "values": [{"measurement": "Emax", "value": "> 80", "unit": "%"}, {"measurement": "EC50", "value": "< 3", "unit": "µM"}]}
{"compound": "CCOc1cccc2c1CN(CC(C)(C)C)C2(C)C(=O)NS(=O)(=O)c1cccc(=O)[nH]1", "note": "(centres unmarked) [Compound 85, 2-(2,2-dimethylpropyl)-4-ethoxy-1-methyl-N-[(6-oxo-1H-pyridin-2-yl)sulfonyl]isoindoline-1-carboxamide]", "values": [{"measurement": "Emax", "value": "≤ 30", "unit": "%"}, {"measurement": "EC50", "value": "> 10", "unit": "µM"}]}
{"compound": "CC[C@@H](C)Oc1nc(-c2cc(F)cc(OCC(C)C)c2)ccc1C(=O)NS(=O)(=O)c1cccc(N)n1", "note": "[Compound 59, N-[(6-amino-2-pyridyl)sulfonyl]-6-(3-fluoro-5-isobutoxy-phenyl)-2-[(1R)-1-methylpropoxy]pyridine-3-carboxamide]", "values": [{"measurement": "Emax", "value": "30 to 80", "unit": "%"}, {"measurement": "EC50", "value": "< 3", "unit": "µM"}]}
{"compound": "CCOCC(C)Oc1nc(-c2cc(F)cc(OCC(C)C)c2)ccc1C(=O)NS(=O)(=O)c1cccc(N)n1", "note": "(centres unmarked) [Compound 71, N-[(6-amino-2-pyridyl)sulfonyl]-2-(2-ethoxy-1-methyl-ethoxy)-6-(3-fluoro-5-isobutoxy-phenyl)pyridine-3-carboxamide]", "values": [{"measurement": "Emax", "value": "30 to 80", "unit": "%"}, {"measurement": "EC50", "value": "< 3", "unit": "µM"}]}
{"compound": "CCN(c1nc(-c2cc(F)cc(OCC(C)C)c2)ccc1C(=O)NS(=O)(=O)c1ccn[nH]1)C(C)C", "note": "[Compound 16, 2-[ethyl(isopropyl)amino]-6-(3-fluoro-5-isobutoxy-phenyl)-N-(1H-pyrazol-5-ylsulfonyl)pyridine-3-carboxamide]", "values": [{"measurement": "Emax", "value": "> 80", "unit": "%"}, {"measurement": "EC50", "value": "< 3", "unit": "µM"}]}
{"compound": "CC(C)COc1cc(F)cc(-c2ccc(C(=O)NS(=O)(=O)c3cccc(N)n3)c(N(C)CC(C)C)n2)c1", "note": "[Compound 61, N-[(6-amino-2-pyridyl)sulfonyl]-6-(3-fluoro-5-isobutoxy-phenyl)-2-[isobutyl(methyl)amino]pyridine-3-carboxamide]", "values": [{"measurement": "Emax", "value": "> 80", "unit": "%"}, {"measurement": "EC50", "value": "< 3", "unit": "µM"}]}
{"compound": "CCN(CC)c1nc(-c2cc(F)cc(OCC(C)C)c2)ccc1C(=O)NS(=O)(=O)c1cccc(N)n1", "note": "[Compound 53, N-[(6-amino-2-pyridyl)sulfonyl]-2-(diethylamino)-6-(3-fluoro-5-isobutoxy-phenyl)pyridine-3-carboxamide]", "values": [{"measurement": "Emax", "value": "> 80", "unit": "%"}, {"measurement": "EC50", "value": "< 3", "unit": "µM"}]}
{"compound": "CC(C)COc1cc(F)cc(-c2ccc(C(=O)NS(=O)(=O)c3cccc(N)n3)c(NC(C)(C)C)n2)c1", "note": "[Compound 58, N-[(6-amino-2-pyridyl)sulfonyl]-2-(tert-butylamino)-6-(3-fluoro-5-isobutoxy-phenyl)pyridine-3-carboxamide]", "values": [{"measurement": "Emax", "value": "> 80", "unit": "%"}, {"measurement": "EC50", "value": "< 3", "unit": "µM"}]}
{"compound": "CC(C)COc1cc(F)cc(-c2ccc(C(=O)NS(=O)(=O)c3ccn[nH]3)c(N(C)C(C)C)n2)c1", "note": "[Compound 79, 6-(3-fluoro-5-isobutoxy-phenyl)-2-[isopropyl(methyl)amino]-N-(1H-pyrazol-5-ylsulfonyl)pyridine-3-carboxamide]", "values": [{"measurement": "Emax", "value": "> 80", "unit": "%"}, {"measurement": "EC50", "value": "< 3", "unit": "µM"}]}
{"compound": "C=CC(C)Oc1nc(-c2cc(F)cc(OCC(C)C)c2)ccc1C(=O)NS(=O)(=O)c1cccc(N)n1", "note": "(centres unmarked) [Compound 42, N-[(6-amino-2-pyridyl)sulfonyl]-6-(3-fluoro-5-isobutoxy-phenyl)-2-(1-methylallyloxy)pyridine-3-carboxamide]", "values": [{"measurement": "Emax", "value": "> 80", "unit": "%"}, {"measurement": "EC50", "value": "< 3", "unit": "µM"}]}
{"compound": "COC[C@H](C)Oc1nc(-c2cc(F)cc(OCC(C)C)c2)ccc1C(=O)NS(=O)(=O)c1cccc(N)n1", "note": "[Compound 20, N-[(6-amino-2-pyridyl)sulfonyl]-6-(3-fluoro-5-isobutoxy-phenyl)-2-[(1S)-2-methoxy-1-methyl-ethoxy]pyridine-3-carboxamide]", "values": [{"measurement": "Emax", "value": "30 to 80", "unit": "%"}, {"measurement": "EC50", "value": "< 3", "unit": "µM"}]}
{"compound": "CC(C)=C(C)c1nc(-c2cc(F)cc(OCC(C)C)c2)ccc1C(=O)NS(=O)(=O)c1cccc(N)n1", "note": "[Compound 37, N-[(6-amino-2-pyridyl)sulfonyl]-2-(1,2-dimethylprop-1-enyl)-6-(3-fluoro-5-isobutoxy-phenyl)pyridine-3-carboxamide]", "values": [{"measurement": "Emax", "value": "30 to 80", "unit": "%"}, {"measurement": "EC50", "value": "< 3", "unit": "µM"}]}
{"compound": "CCCCOc1nc(-c2cc(F)cc(OCC(C)C)c2)ccc1C(=O)NS(=O)(=O)c1cccc(N)n1", "note": "[Compound 63, N-[(6-amino-2-pyridyl)sulfonyl]-2-butoxy-6-(3-fluoro-5-isobutoxy-phenyl)pyridine-3-carboxamide]", "values": [{"measurement": "Emax", "value": "> 80", "unit": "%"}, {"measurement": "EC50", "value": "< 3", "unit": "µM"}]}
{"compound": "CCC(Oc1nc(-c2cc(F)cc(OCC(C)C)c2)ccc1C(=O)NS(=O)(=O)c1cccc(N)n1)C(C)(C)C", "note": "(centres unmarked) [Compound 34]", "values": [{"measurement": "Emax", "value": "> 80", "unit": "%"}, {"measurement": "EC50", "value": "< 3", "unit": "µM"}]}
{"compound": "CCC(Oc1nc(-c2cc(F)cc(OCC(C)C)c2)ccc1C(=O)NS(=O)(=O)c1cccc(N)n1)C(C)C", "note": "(centres unmarked) [Compound 40, N-[(6-amino-2-pyridyl)sulfonyl]-2-(1-ethyl-2-methyl-propoxy)-6-(3-fluoro-5-isobutoxy-phenyl)pyridine-3-carboxamide]", "values": [{"measurement": "Emax", "value": "30 to 80", "unit": "%"}, {"measurement": "EC50", "value": "< 3", "unit": "µM"}]}
{"compound": "CC(C)COc1cc(F)cc(-c2ccc(C(=O)NS(=O)(=O)c3cccc(N)n3)c(OCCOC(C)(C)C)n2)c1", "note": "[Compound 4, N-[(6-amino-2-pyridyl)sulfonyl]-2-(2-tert-butoxyethoxy)-6-(3-fluoro-5-isobutoxy-phenyl)pyridine-3-carboxamide]", "values": [{"measurement": "Emax", "value": "30 to 80", "unit": "%"}, {"measurement": "EC50", "value": "< 3", "unit": "µM"}]}
{"compound": "CC(C)COc1cc(F)cc(-c2ccc(C(=O)NS(=O)(=O)c3cccc(N)n3)c(OC(C(C)C)C(C)(C)C)n2)c1", "note": "(centres unmarked) [Compound 68, N-[(6-amino-2-pyridyl)sulfonyl]-6-(3-fluoro-5-isobutoxy-phenyl)-2-(1-isopropyl-2,2-dimethyl-propoxy)pyridine-3-carboxamide]", "values": [{"measurement": "Emax", "value": "30 to 80", "unit": "%"}, {"measurement": "EC50", "value": "< 3", "unit": "µM"}]}
{"compound": "CC(C)COc1cc(F)cc(-c2ccc(C(=O)NS(=O)(=O)c3cccc(N)n3)c(OCC(C)(C)C)n2)c1", "note": "[Compound 32, N-[(6-amino-2-pyridyl)sulfonyl]-2-(2,2-dimethylpropoxy)-6-(3-fluoro-5-isobutoxy-phenyl)pyridine-3-carboxamide]", "values": [{"measurement": "Emax", "value": "> 80", "unit": "%"}, {"measurement": "EC50", "value": "< 3", "unit": "µM"}]}
{"compound": "CC(C)COc1cc(F)cc(-c2ccc(C(=O)NS(=O)(=O)c3ccn[nH]3)c(NCC(C)(C)C)n2)c1", "note": "[Compound 72, 2-(2,2-dimethylpropylamino)-6-(3-fluoro-5-isobutoxy-phenyl)-N-(1H-pyrazol-5-ylsulfonyl)pyridine-3-carboxamide]", "values": [{"measurement": "Emax", "value": "30 to 80", "unit": "%"}, {"measurement": "EC50", "value": "3 to 10", "unit": "µM"}]}
{"compound": "COCC(C)(C)Oc1nc(-c2cc(F)cc(OCC(C)C)c2)ccc1C(=O)NS(=O)(=O)c1cccc(N)n1", "note": "[Compound 51, N-[(6-amino-2-pyridyl)sulfonyl]-6-(3-fluoro-5-isobutoxy-phenyl)-2-(2-methoxy-1,1-dimethyl-ethoxy)pyridine-3-carboxamide]", "values": [{"measurement": "Emax", "value": "30 to 80", "unit": "%"}, {"measurement": "EC50", "value": "< 3", "unit": "µM"}]}
